The nature of this assay: odour absorption test with respect to natural sweat (sniff test on flasks). Also on record: species or system human. As to the method:
An odour absorption test was carried out with respect to natural sweat.
The axillary sweat from a number of people was thus removed in a sauna and combined to produce a sweat sample. In order to obtain the characteristic nauseating smell of sweat, before introducing the active substance, this sweat sample was incubated for 14 hours at a temperature of 37° C. 1 ml of the incubated sweat sample was introduced into each flask of active substance to be tested and into a control flask (without active substance). The active substance: 5.5 mg of Zn ion in the form of zinc pidolate, zinc chloride, zinc gluconate, zinc lactate, zinc phenolsulphonate and zinc sulphate, was then introduced respectively into each of the flasks of active substance to be tested.
The flasks were then incubated for a second time for 24 hours at a temperature of 37° C. and then for a third time for 3 days at room temperature.
Eight judges then smelled (“sniff test”) each of these flasks and graded the intensity of the smell on a scale from 0 to 4.

Turning to `Oc1cc(Cl)ccc1Oc1ccc(Cl)cc1Cl` [triclosan, 5-chloro-2-(2,4-dichlorophenoxy)phenol], the “absorption effect on the smell of sweat” value (sample containing a bactericide, check that the test is truly an odour absorption test) was “no absorption effect”.

Take “zinc pyrrolidonecarboxylate [zinc pidolate]”: for the setting “5.5 mg of Zn ion in 1 ml incubated sweat, 24 hours at 37° C. then 3 days at room temperature, eight judges, control flask graded 4”, the “intensity of the smell, grade on a scale from 0 to 4 (0=no smell, 4=strong smell)” value is “best results”.

Source of the values: patent US6632421B2, “Deodorant composition comprising a water-soluble zinc salt as odor-absorbing agent” (L'Oreal, priority 1996, dated 2003).
